Data taken from patent US8178579B2, “Dioxanes and uses thereof” (President and Fellows of Harvard College, priority 2001, dated 2012).
“Also recorded” adds a separate entry of the source.

How the values were obtained:
[1] = system: zebrafish (Danio rerio) embryos; test: phenotypic assay with 16-cell zebrafish embryos; format: in vivo; details: 60 μM, 18 h (24 h in FIG. 22B) post-fertilization
Experimental: To determine the effect of these compounds on whole organism development, a phenotypic assay was performed using 16-cell zebrafish (Danio rerio) embryos (Stockwell et al. Chem. Biol. 1999, 6, 71-83) with 1300 compounds from the 1,3-dioxane library. […] The folded notochord phenotype has also been observed through genetic mutant screens^32 for the gul^m208 and lev^m531 mutations. The 1,3-diol (13) may target these gene products or other proteins involved in the same biological pathway. Dissection of the pathways involved in notochord development may be complemented by small molecule ligands for proteins in those pathways.

[2] = system: α-tubulin acetylation in the presence of ITSA1; details: cited from earlier work
[3] = system: microtubules in A549 cells; test: microtubule stability to nocodazole, cold or calcium depolymerization and repolymerization; format: cell-based, human; details: tubacin 2 μM, ITSA1 50 μM
Experimental: Detection of acetylated α-tubulin and acetylated histones by immunofluorescence was performed as described in Example 6 above. For determining microtubule stability, A549 cells were treated as indicated, fixed in glutaraldehyde, and stained for acetylated α-tubulin and total α-tubulin in antibody dilution buffer (ADB, Tris-buffered saline (TBS), 0.15 M NaCl, 0.02 M Tris-Cl, pH 7.4, with 2% bovine serum albumin and 0.1% Triton-X 100). For cold-depolymerization, cells were incubated at 4° C. or 37° C. for an additional 90 minutes before fixation. For calcium depolymerization, cells were incubated at 37° C. for 10 minutes in a microtubule-stabilizing buffer (0.2% NP-40, 5 mM MgCl2, 2 mM EGTA, 2 M glycerol, 100 mM PIPES, pH 6.8) with and without the addition of CaCl2 (2 mM) before glutaraldehyde fixation. For co-localization experiments, biotubacin (50 μM) treated A549 cells were fixed in 3.7% formaldehyde in TBS and processed as for detecting acetylated α-tubulin (See Example 6 above) with biotubacin detected using streptavidin-TR (1:500). HDAC6 was detected using a rabbit polyclonal antibody (1:250-1:750; C.M.G., unpublished data) under the conditions used to detect acetylated α-tubulin (See Example 6 above). Filamentous actin in HT-1080 cells was detected using TR-conjugated phalloidin (1 μg/mL), and depolymerized actin using FITC-conjugated deoxyribonuclease (10 μg/mL), following fixation in 3.7% formaldehyde in TBS. p58 (1:100) in NIH-3T3 cells was detected after fixation in 3.7% formaldehyde in TBS. Images for these experiments were collected on a Zeiss LSM510 confocal scanning laser microscope at the appropriate wavelengths using the accompanying software and processed with Adobe Photoshop. Deconvoluted serial images of TSA and DMSO treated A549 cells were obtained by taking sections (8μ) on a Zeiss Axioskop 2 microscope using an AxioCam camera and the accompanying software. Rat hippocampal neuronal cultures were fixed at room temperature for 15 min in phosphate-buffered saline (PBS) containing 4% paraformaldehyde. […]

[4] = system: histone deacetylation; test: acetylated lysine / acetylated histone in cells (AcLysine cytoblot, immunofluorescence, Western blot); format: cell-based, human; details: A549 (also BS-C-1) cells, tubacin, niltubacin 2 μM, histacin 20 μM, library ~2-5 μM, 18 h
Experimental: (§1) A549 cells were seeded at a density of 4,000 cells/50 μl in DMEM+ in white tissue culture-treated 384-well plates (Nalge Nunc) using a Multidrop 384 liquid dispenser (Labsystems). Library small molecules were pinned twice (100-150 nl/pin) from ˜1 mM stock solutions (DMSO) and incubated for 18 hours. For the ITSA1+AcTubulin assay, ITSA1 (50 μM) was added four hours after pin-transfer of library molecules. Media was aspirated with a 16-channel wand. For the acetylated α-tubulin cytoblot (AcTubulin), 40 μl/well of fixation solution (3.7% formaldehyde (1:10 from 37% stock) in Tris-buffered saline (TBS, 0.15 M NaCl, 0.02 M Tris-Cl, pH 7.4) was added and plates incubated for twenty minutes at room temperature. After aspiration, 30 μl 100% methanol (−20° C.) was added and incubated for five minutes at room temperature. After aspirating and washing three times with 90 μl of antibody dilution buffer (ADB, TBS/2% bovine serum albumin, 0.1% TritonX-100) the wells were blocked for twenty minutes in ADB. After aspirating, 20 μl/well of ADB containing anti-acetylated α-tubulin antibody (mouse; 1:1000) and anti-mouse IgG horseradish peroxidase (HRP)-conjugated antibody (1:750) was added and incubated overnight (4° C.). For the anti-acetyl lysine cytoblot (AcLysine), 40 μl/well of fixation solution (95% ethanol/5% acetic acid, −20° C.) was added and plates incubated for five minutes at room temperature. Wells were aspirated, washed, and blocked in ADB as for the AcTubulin protocol. After aspirating, 20 μl/well of ADB containing anti-acetylated lysine (rabbit; 1:375) and anti-rabbit IgG-HRP conjugated antibody (1:750) was added and incubated overnight (4° C.). For the anti-acetylated histone H3 (AcHistH3) and anti-acetylated histone H4 (AcHistH4) cytoblots, cells were fixed, washed, and blocked in ADB as for the AcLysine cytoblot. After aspirating, 20 μl/well of ADB containing anti-acetylated histone H3 antibody (rabbit, 1:500) or anti-acetylated histone H4 antibody (rabbit, 1:500) was added and incubated for two hours at room temperature. Wells were aspirated and washed twice with 80 μl of ADB. After aspirating, 20 μl/well of ADB containing anti-rabbit IgG-HRP conjugated antibody (1:1000) was added and incubated for two hours (room temperature). For the AcTubulin and AcLysine assays, plates were washed three times with TBS before adding 20 μl/well of enhanced chemiluminescent (ECL) mixture. For the AcHistH3 and AcHistH4 assays, plates were washed three times with 80 μl TBS with 1% Triton X-100 and once with 80 μl TBS before adding 20 μl/well of ECL mixture. Plates were read on an Analyst plate reader (LJL Biosystems) with an integration time of 0.1 seconds.
(§2) 1,3-dioxanes from single polystyrene macrobeads were prepared as 1-2 mM stock solutions in DMSO as described [Hubbert, C., Guardiola, A., Shao, R., Kawaguchi, Y., Ito, A., Nixon, A., Yoshida, M., Wang, X. F., and Yao, T. P. (2002). HDAC6 is a microtubule-associated deacetylase. Nature 417, 455-458]. Bead decoding and structure determination were as described [See for example, Hubbert, C., Guardiola, A., Shao, R., Kawaguchi, Y., Ito, A., Nixon, A., Yoshida, M., Wang, X. F., and Yao, T. P. (2002). HDAC6 is a microtubule-associated deacetylase. Nature 417, 455-458; and Piperno, G., LeDizet, M., and Chang, X. J. (1987). Microtubules containing acetylated alpha-tubulin in mammalian cells in culture. J. Cell Biol. 104, 289-302]. Small molecules (˜2-5 μM) of interest were retested using a sample from the plate of stock solutions by fluorescence microscopy and comparison to the effects of trichostatin (300 nM to 1 μM).
(§3) A549 cells were seeded at a density of 50,000/200 μl in DMEM+ on the surface of glass coverslips on top of Parafilm in a 10 cm dish and allowed to attach overnight. For detection of acetylated α-tubulin, cells were permeabilized and fixed with 100 mM K-PIPES, pH 6.8, 10 mM EGTA, 1 mM MgCl2, 0.2% triton X-100, 0.2% glutaraldehyde for fifteen minutes. […]

[5] = system: α-tubulin deacetylation; test: acetylated α-tubulin in cells (AcTubulin cytoblot, immunofluorescence, Western blot); format: cell-based, human; details: A549 (also BS-C-1) cells, tubacin/JCWII114, niltubacin/JCWII153 2 μM, TSA 100 nM-4 μM, library ~2-5 μM, 18 h
Experimental: as §1, §2, §3

[6] = system: α-tubulin acetylation in the presence of ITSA1; test: ITSA1+AcTubulin assay: suppression of induced acetylation by ITSA1; format: cell-based, human; details: ITSA1 50 μM, A549 cells
Experimental: A549 cells were seeded at a density of 4,000 cells/50 μl in DMEM+ in white tissue culture-treated 384-well plates (Nalge Nunc) using a Multidrop 384 liquid dispenser (Labsystems). Library small molecules were pinned twice (100-150 nl/pin) from ˜1 mM stock solutions (DMSO) and incubated for 18 hours. For the ITSA1+AcTubulin assay, ITSA1 (50 μM) was added four hours after pin-transfer of library molecules. Media was aspirated with a 16-channel wand. […] Plates were read on an Analyst plate reader (LJL Biosystems) with an integration time of 0.1 seconds.
Bromodeoxyuridine labeling and fluorescence-activated cell sorting (FACS) were performed as described (K. M. Koeller et al., Chemistry & Biology, 10 (5) (2003) pp. 397-410). […]

[O-][n+]1ccccc1SC[C@@H](O)[C@@H](c1ccccc1)[C@@H](O)c1ccc(CO)cc1 (racemic) [compound 13, (±)-(1R,2S,3S)-1-[4-(hydroxymethyl)phenyl]-4-[(1-oxido-2-pyridinyl)thio]-2-phenyl-1,3-butanediol]
developmental phenotype of zebrafish embryos [1]: causes a wavy notochord phenotype; also recorded: developed folds in the anterior trunk region of the notochord

O=C(c1ccc(Cl)cc1Cl)n1nnc2ccccc21 [ITSA1, reference compound]
suppression by ITSA1, stated as known [2]: suppresses (reduces) the ability of TSA to increase acetylation levels of both α-tubulin and histones
polymerization of microtubules after removal of nocodazole [3]: neither tubacin nor ITSA1 (50 μM; 30 minutes) prevents the repolymerization of microtubules; also recorded: neither tubacin nor ITSA1 prevented the polymerization of microtubules

Nc1ccccc1NC(=O)CCCCCC(=O)Nc1cccc([C@@H]2O[C@H](CN3CCN(Cc4ccccc4)CC3)C[C@H](c3ccc(CO)cc3)O2)c1 [histacin]
effect on histone deacetylation / lysine or histone acetylation in cells [4]: increased acetylated histone levels
effect on histone deacetylation / lysine or histone acetylation in cells ([4]; listed as 410 F1): strongly increased lysine acetylation
effect on tubulin deacetylation / α-tubulin acetylation in cells [5]: without affecting α-tubulin acetylation levels
effect on tubulin deacetylation / α-tubulin acetylation in cells ([5]; listed as 410 F1): no effect on α-tubulin acetylation
suppression of the induced acetylation by ITSA1 [6]: cannot be suppressed by ITSA1
